Tests used:
[1] = test system: Pancreatic Ductal Adenocarcinoma #03; experiment: Evaluation against early stage pancreatic ductal adenocarcinoma #03 in BDF mice; type: in vivo
Text: Male BDF mice (12 weeks old, weight approximately 28.9 g) were implanted with the pancreatic ductal cell carcinoma #03 3 days before beginning treatment with (HO)2DEHSPM.

[2] = Non-tumor-bearing toxicity controls, same regimens; type: in vivo
[3] = test system: pancreatic native polyamine pools; experiment: Tissue drug and native polyamine levels (pancreas, liver) in treated dogs; type: in vivo, beagles
Text: The two dogs (#490 and 494) were fed a prescription canned and dry dog food and were supplemented with Viokase, a pancreatic enzyme preparation, by mixing three tablets with food or by oral administration immediately before each feeding. The dogs were maintained on this regimen for approximately three weeks. During this time, their weight and blood chemistries were closely monitored. The Viokase supplementation was then stopped and the same parameters were again evaluated. One week after the Viokase administration had ceased, the animals were euthanized and tissues were taken for histology and for the determination of tissue polyamine levels.
As the pancreatic insufficiency side-effect that was observed after the administration of the (R,R)—(HO)2DEHSPM to the beagles may have been related to the (R,R)-chirality of the molecule, the (S,S)-enantiomer was synthesized and was compared in a head-to-head fashion with the (R,R)-enantiomer. To perform this experiment, five male beagles approximately 6-8 months of age were obtained from Harlan Sprague Dawley. There were provided with food and water ad libitum and were allowed to acclimate to their new surroundings for two weeks. The animals were weighed prior to starting drug administration and were weighed once per week during the drug dosing period. A CBC and chemistry panel and a Holter monitor were performed once per week. In addition to the usual tests, additional pancreatic function-specific tests were also performed. These additional evaluations included a fecal trypsin test, examination of the feces for fecal fat and serum trypsin-like immunoreactivity determinations. It was hoped that these signs of pancreatic insufficiency would only appear in the animals given the (R,R)-enantiomer and would not be observed in the dogs that were given the (S,S)-molecule. The pancreatic insufficiency may not become evident until approximately 7-8 weeks post-drug. At the conclusion of the experiment, all of the animals were sacrificed and the histology and tissue polyamine levels were determined.
• 1. Dogs #468 and 500 were given (R,R)—(HO)2DEHSPM subcutaneously twice daily for 13 days. • 2. They were fed Purina Dog Chow ad libitum and given free access to water. • 3. Polyamine levels in the pancreas were also analyzed at several time points post-drug. • 4. At the start of the experiment, dog #468 weighed 14.4 kg and dog #500 weighed 12.8 kg. The latter animal's weight never exceeded 13.2 kg. At the end of the drug dosing period, dog #468 weighed 13.0 kg, a loss of 1.4 kg; dog #500 weighed 13.2 kg, a gain of 0.4 kg. • 5. […] The pancreatic native polyamine pools (most especially SPD) were markedly diminished compared to untreated control tissue: [SPM]control=3,985 μm v. [SPM10-days post-treatment=2,548 μm (64% of control) [SPD]control=2,820 μm v [SPD]10-days post-treatment=721 μm (25.6% of control) • 6. Dog #468 was bright, alert and responsive until day thirteen of drug administration. […] The dog was fed boiled chicken and rice, as well as Nutrical (a caloric supplement) and cat food and was slowly weaned back to regular dog food. Frank and/or occult blood was found in the dog's stool until about 17-days post-drug. • 7. Dog #500 was bright, alert and responsive throughout the experiment. […] However, stool consistency had normalized by one week post-drug. • 8. […] The inability to digest fats was confirmed when this test was repeated and the fatty meal was supplemented with Viokase (a pancreatic enzyme supplement). […] (2.15 mg/kg every 12 hours) for 13 days • Route: subcutaneously • 1. Dogs #440 and 476 were given (S,S)— (HO)2DEHSPM subcutaneously twice daily for 13 days. • […]. They were fed Purina Dog Chow ad libitum and given free access to water. • 3. At the start of the experiment, dog #440 weighed 11.8 kg.
Two animals were also treated with DEHSPM at a dose equimolar to the (HO)2DEHSPM dosage and sacrificed at 1- and 75-days after the final treatment. […]

[4] = test system: pancreas; experiment: Pancreas anatomy and function in DEHSPM-treated animals; type: in vivo; settings: equimolar dose
Experimental: Two animals were also treated with DEHSPM at a dose equimolar to the (HO)2DEHSPM dosage and sacrificed at 1- and 75-days after the final treatment. […] At 1-day post-treatment, the total amount of drug: (parent+metabolites)1-day post-treatment=951 μm. […] At 75-days post-treatment, a substantial amount of DEHSPM remains in the pancreas: (parent+metabolites)75-days post-treatment=595 μm.
The nearly normal polyamine pools are mirrored by the anatomy.

[5] = group 2, tumor-bearing, IV QD 3, 4, 6-9, 14, 17, 18, total dosage 240 mg/kg
[6] = group 2, tumor-bearing, total dosage 240 mg/kg IV
[7] = group 4, tumor-bearing, IV QD 3-18, total dosage 205 mg/kg
[8] = group 4, tumor-bearing, total dosage 205 mg/kg IV
[9] = group 6, tumor-bearing, total dosage 102.5 mg/kg IV
[10] = group 3, NTB, IV QD 3, 4, 6-9, 14, 17, 18, total dosage 240 mg/kg
[11] = group 3, NTB, total dosage 240 mg/kg IV
[12] = group 5, NTB, IV QD 3-18, total dosage 205 mg/kg
[13] = group 5, NTB, total dosage 205 mg/kg IV
[14] = group 7, NTB, IV QD 3-18, total dosage 102.5 mg/kg
[15] = group 7, NTB, total dosage 102.5 mg/kg IV
[16] = 1-day post-treatment, equimolar dose
[17] = 75-days post-treatment, equimolar dose

Structure (SMILES): CCNCCCCNCCCCNCCCCNCC [DEHSPM, reference compound]
- Mean Body Wt. Loss [1, 5]: −11.2 g/mouse
- Percent Body Wt. Loss [1, 5]: −38.0%
- Day of Wt. Loss Nadir [1, 6]: 35 days
- Drug Deaths (days of death) [1, 6]: 0/5
- Mean Body Wt. Loss [1, 7]: −8.6 g/mouse
- Percent Body Wt. Loss [1, 7]: −29.0%
- Day of Wt. Loss Nadir [1, 8]: 35 days
- Drug Deaths (days of death) [1, 8]: 0/5
- Mean Body Wt. Loss ([1]; group 6, tumor-bearing, IV QD 3-18, total dosage 102.5 mg/kg): −0.4 g/mouse
- Day of Wt. Loss Nadir [1, 9]: 7 days
- Drug Deaths (days of death) [1, 9]: 0/5
- Mean Body Wt. Loss [2, 10]: −8.5 g/mouse
- Percent Body Wt. Loss [2, 10]: −30.0%
- Day of Wt. Loss Nadir [2, 11]: 35 days
- Drug Deaths (days of death) [2, 11]: 0/2
- Mean Body Wt. Loss [2, 12]: −7.5 g/mouse
- Percent Body Wt. Loss [2, 12]: −26.0%
- Day of Wt. Loss Nadir [2, 13]: 35 days
- Drug Deaths (days of death) [2, 13]: 0/2
- Mean Body Wt. Loss [2, 14]: −1.0 g/mouse
- Percent Body Wt. Loss [2, 14]: −3.0%
- Day of Wt. Loss Nadir [2, 15]: 23 days
- Drug Deaths (days of death) [2, 15]: 0/2
- total amount of drug (parent+metabolites) in pancreas ([3]; 1-day post-treatment, dose equimolar to the (HO)2DEHSPM dosage): 951 μm
- [SPD] in pancreas [3, 16]: 863 μm
- [SPD] in pancreas, % of control [3, 16]: 30.6 % of control
- [SPM] in pancreas [3, 16]: 2,770 μm
- [SPM] in pancreas, % of control [3, 16]: 69.5 % of control
- PUT in pancreas [3, 17]: 60 μm
- [SPD] in pancreas [3, 17]: 1,572 μm
- [SPD] in pancreas, % of control [3, 17]: 55.7 % of control
- [SPM] in pancreas [3, 17]: 3,162 μm
- [SPM] in pancreas, % of control [3, 17]: 79.3 % of control
- drug (parent+metabolites) in pancreas [3, 17]: 595 μm
- pancreas anatomy ([4]; 75-days post-treatment): essentially normal macroscopically and microscopically
- exocrine and endocrine pancreatic functions [4]: appeared normal

Reference: patent US20080108706A1, “Chemical resection of pancreas” (priority 1999, published 2008)
